These results are taken from ChEMBL document CHEMBL1201862, “PubChem BioAssay data set” (2004).

Holding throughout (assay): growth of human tumour cells (NCI), 48 h
For test [1], the system named is MDA-N.
For test [2], the system named is HL-60.
In test [3] the test system is LOX IMVI.
Test [4] deals with M14.
Test [5] deals with NCI-H522.
Test [6] deals with HCC 2998.
Test [7] deals with UACC-257.
Test [8] relates to SF-268.
The subject of test [9] is MDA-MB-435.
The subject of test [10] is TK-10.
The test system of test [11] is NCI-H226.
In test [12] the test system is SF-295.
Test [13] relates to HCT-116.
Test [14] has as its system HOP-18.
Test [15] deals with M19-MEL.
Test [16] has as its system KM-20L2.
Test [17] has as its system DMS-273.
Test [18] deals with SNB-78.
Test [19] deals with A498.
The subject of test [20] is NCI/ADR-RES.

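Five concentrations, 48 hours, 96-well plates. GI50 marks 50% less growth.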 Activity calls are given as the source filed them. Cut-off read from the data, not from the text of the source: active = GI50 up to about 1.1 µM and inactive = higher.

As for `COc1nc2ccc(COc3ccc(C(=O)NC(CCC(=O)O)C(=O)O)cc3)cc2nc1OC` (centres undefined), the GI50 in test [1], in test [2], in test [3], in test [4], in [5] and in test [6] was > 10 µM (inactive) throughout. Moreover, the GI50 in test [7], in test [8], in [9], in [10], in test [11] and in test [12] was > 10 µM (inactive) throughout.
On to `COc1ccc(C[C@H](N)C(=O)N2C[C@@H](CO)C[C@@H](n3ccc(=O)[nH]c3=O)C2)cc1`, for which the GI50 in test [13], in test [14], in test [2], in test [3], in test [4] and in test [5] was > 100 µM (inactive) in each case. In addition, the GI50 in test [6], in test [8], in test [15], in test [16], in test [10] and in test [11] was > 100 µM (inactive) throughout. In addition, in test [17], the GI50 was > 100 µM (inactive).
`CC(=O)OCC1=C(C(=O)O)C(c2ccc3c(c2)OCO3)c2cc3c(cc2O1)OCO3` (centres undefined): the GI50 in test [13], in test [14], in test [2], in test [3], in [4] and in test [7] was > 100 µM (inactive) in each case. The GI50 in [18], in test [15], in test [16], in test [10], in test [17] and in test [12] was > 100 µM (inactive) each time.
Consider `CO/C(=N\N=C(/C)C(F)(F)F)c1ccncc1`, for which the GI50 in test [1] was > 100 µM (inactive); in test [13], > 100 µM (inactive); in test [19] it was 15.5 µM (inactive); in test [2] it was > 100 µM (inactive); in test [4], > 100 µM (inactive); in test [5], > 100 µM (inactive). For the same compound, the GI50 in test [20], in test [9] and in test [11] was > 100 µM (inactive) each time.
As to `Cc1ccc(C2C(C(=O)C(C)(C)C)N2S(=O)(=O)c2ccc(C)cc2)cc1` (centres undefined), the GI50 in test [1] was 19.1 µM (inactive); in [13], 18.7 µM (inactive); in test [3] it was 22.4 µM (inactive); in test [4], 17.8 µM (inactive); in test [5], 16.1 µM (inactive); in test [6], 19.1 µM (inactive). Further, the GI50 in test [20] was 23.4 µM (inactive); in test [8], 30.5 µM (inactive); in [9], 20.9 µM (inactive); in test [10], 28.6 µM (inactive); in test [11], 21.3 µM (inactive); in [12], 41.6 µM (inactive).
Consider `COc1ccc(C2OC[C@H]3O[C@@H](OCc4ccccc4)[C@H](O)[C@@H](O)[C@@H]3O2)cc1` (some centres undefined), for which the GI50 in test [1], in test [13], in [19], in test [3], in test [6] and in test [7] was > 100 µM (inactive) in each case. Besides, the GI50 in test [20] is > 100 µM (inactive); in [8], > 100 µM (inactive); in [9], > 100 µM (inactive); in test [10], > 100 µM (inactive); in test [11], 23.2 µM (inactive); in [12] it was > 100 µM (inactive).
As for `CCCNC1=C(C)C(=O)C2=C(C1=O)[C@H](COC(N)=O)[C@]1(OC)[C@@H]3N[C@@H]3CN21`, the GI50 in [13] is 3.69 µM (inactive); in test [14], 13.4 µM (inactive); in test [19], 2.69 µM (inactive); in test [2], 0.394 µM (active); in test [3] it was 1.6 µM (inactive); in test [5], 2.88 µM (inactive). Further, the GI50 in test [6] was 3.79 µM (inactive); in [7], 5.55 µM (inactive); in [18], 26.9 µM (inactive); in test [20], > 100 µM (inactive); in test [8], 4.65 µM (inactive); in test [15], 3.44 µM (inactive). Also, the GI50 in test [16] was 8.75 µM (inactive); in test [11] it was 6.27 µM (inactive); in test [17] it was 0.257 µM (active); in [12] it was 2.39 µM (inactive).
For `CCCC(O)C(NC(=O)CCl)C(=O)O` (centres undefined), the GI50 in test [13], in test [14], in [19], in test [2], in [3] and in test [5] was > 100 µM (inactive) in each case. Besides, the GI50 in test [6], in test [7], in test [18], in test [20], in test [8] and in test [15] was > 100 µM (inactive) throughout. In addition, the GI50 in [16], in test [11], in test [17] and in test [12] was > 100 µM (inactive) in each case.
Consider `CCOP(=O)(C/C=C/Cn1ncc(=O)[nH]c1=O)OCC`, for which the GI50 in [1], in test [19], in test [2], in test [3], in test [4] and in test [5] was > 100 µM (inactive) in each case. Besides, the GI50 in [6], in test [7], in test [20], in test [8], in [9] and in test [10] was > 100 µM (inactive) each time. Moreover, in test [11], the GI50 is > 100 µM (inactive).
As for `CSCCC(NC(=O)C(Cc1ccccc1)NC(=O)CNC(=O)CNC(=O)C(N)Cc1ccc(O)cc1)C(=O)O` (centres undefined), the GI50 in [13], in [14], in test [19], in test [2], in test [3] and in test [5] was > 100 µM (inactive) each time. The GI50 in test [6], in test [7], in [18], in test [20], in [8] and in test [15] was > 100 µM (inactive) each time. Further, the GI50 in test [16] is > 20.3 µM (inactive); in test [17], > 100 µM (inactive); in [12], > 100 µM (inactive).
Consider `CN1CCOC(c2ccc(Cl)cc2)O1` (centres undefined), for which the GI50 in test [1], in test [19], in test [4], in [5], in [6] and in [7] was > 100 µM (inactive) each time. Further, the GI50 in test [20], in [8], in test [9], in test [10], in [11] and in [12] was > 100 µM (inactive) in each case.
With `CC(=O)Nc1cccc(/N=N/N(C)C)c1`, the GI50 in test [13], in [14], in test [19], in test [2], in test [3] and in [5] was > 100 µM (inactive) in each case. The GI50 in test [6], in test [7], in test [18], in [20], in test [8] and in test [15] was > 100 µM (inactive) throughout. For the same compound, the GI50 in test [16] is > 100 µM (inactive); in [11] it was > 100 µM (inactive); in test [17] it was > 100 µM (inactive); in test [12] it was > 63.8 µM (inactive).
Turning to `Cc1ccc(C(C)(C)C[P+](C)(c2ccccc2)c2ccccc2)cc1`, the GI50 in test [13] is 6.56 µM (inactive); in test [14] it was 6.43 µM (inactive); in [19], 34.4 µM (inactive); in test [2], 1.75 µM (inactive); in [3] it was 7.76 µM (inactive); in test [5], 3.4 µM (inactive). Also, the GI50 in test [6] is 9.73 µM (inactive); in [7], 3.56 µM (inactive); in [18], 14.7 µM (inactive); in test [20], > 100 µM (inactive); in test [8], 16.9 µM (inactive); in test [15] it was 4.52 µM (inactive). The GI50 was 6.1 µM (inactive) in [16], 15.6 µM (inactive) in [11], 4.89 µM (inactive) in test [17] and 26.7 µM (inactive) in [12].
